Experimental data reported in patent US10106557B2, “Preparation method for benzoxazoleoxazine ketone compound and intermediate and crystal form thereof” (NORTH CHINA PHARMACEUTICAL NEW DRUG R & D CO., LTD., priority 2014, dated 2018).

Columns and labels:
Type in all cases: biochemical
[1] = molecular target: human coagulation factor Xa (Homo sapiens (Human), UniProt P00742); assay: Human coagulation factor Xa chromogenic assay; details: purified enzyme, substrate S-2222, 37° C.; Ki from IC50 by Cheng-Prusoff; read-out: hfXa Ki
human coagulation factor Xa, sequence (P00742 235-488): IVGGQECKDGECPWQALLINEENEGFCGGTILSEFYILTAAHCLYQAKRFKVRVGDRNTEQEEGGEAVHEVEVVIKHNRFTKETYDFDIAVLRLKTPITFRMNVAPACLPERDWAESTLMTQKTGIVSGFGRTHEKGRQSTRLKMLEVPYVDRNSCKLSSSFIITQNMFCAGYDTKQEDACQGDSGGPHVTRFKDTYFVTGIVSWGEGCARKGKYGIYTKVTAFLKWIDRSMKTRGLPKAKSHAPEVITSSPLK
human coagulation factor Xa, sequence (P00742 41-179): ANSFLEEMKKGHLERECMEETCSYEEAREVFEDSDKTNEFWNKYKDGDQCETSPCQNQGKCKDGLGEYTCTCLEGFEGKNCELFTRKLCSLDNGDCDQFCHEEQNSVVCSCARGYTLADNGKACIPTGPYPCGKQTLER
Protocol: (§1) The inhibitory ability of the compounds to be tested on Xa factor or other enzymes, such as thrombin or trypsin, in human or rats were determined by IC50 values, wherein the IC50 value was associated with the inhibition constant Ki. The purified enzyme was used in the chromogenic determination. The initial rate of hydrolysis of the chromogenic substrate was determined by the variation of absorbance at 405 nm in the linear part on time (usually 2 to 10 minutes after the addition of the substrate) at 37° C. by using FlexStation III (USA Molecular Instruments). By plotting a curve regarding the relative velocity of the hydrolysis (compared to the control group which was free of inhibition) on the logarithm of the concentration of the compounds and linear regression calculation, the concentration of the inhibitor leading to a 50% reduction of the rate of the hydrolysis of the substrate was determined. The enzyme inhibition constant (Ki) was calculated according to Cheng-Prusoff equation: Ki=IC50/(1+[S]/Km), where [S] was the substrate concentration and Km was the meter-Mann's constant determined by the double reciprocal mapping method. The IC50 values of the compounds were obtained by GraphPad Prism software. The curve is fitted by using the “shaped dose effect (variable slope)”.
The inhibitory activity on coagulation factor Xa activity in human or rats was measured by using Tris-HCl buffer (50 mM, pH 8.3, 150 mM NaCl). […] The buffer containing 2 μL 2% (V/V) DMSO (control group which was free of inhibition) or various concentrations of the compounds to be tested were diluted in the buffer containing 2% (V/V) DMSO, and 48 μL buffer of the supporting base S-2222 (Chromogenix; chemical formula: Bz-IIe-Glu(γ-OR)-Gly-Arg-pNA.HCl R═H (50%), wherein R═CH3 (50%)) was added, the final concentration was 0.172 mM.

[2] = molecular target: rat coagulation factor Xa (Rattus norvegicus (Rat), UniProt Q63207); assay: Rat coagulation factor Xa chromogenic assay; details: purified enzyme, substrate S-2222, 37° C.; Ki from IC50 by Cheng-Prusoff; read-out: rfXa Ki
rat coagulation factor Xa, sequence (Q63207 232-482): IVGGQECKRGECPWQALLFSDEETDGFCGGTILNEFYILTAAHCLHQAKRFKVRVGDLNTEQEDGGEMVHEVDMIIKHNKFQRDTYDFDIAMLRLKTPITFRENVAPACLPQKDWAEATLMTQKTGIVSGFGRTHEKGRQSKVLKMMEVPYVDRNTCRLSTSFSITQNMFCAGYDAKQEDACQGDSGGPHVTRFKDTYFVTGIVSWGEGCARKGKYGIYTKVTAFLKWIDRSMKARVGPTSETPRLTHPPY
rat coagulation factor Xa, sequence (Q63207 41-180): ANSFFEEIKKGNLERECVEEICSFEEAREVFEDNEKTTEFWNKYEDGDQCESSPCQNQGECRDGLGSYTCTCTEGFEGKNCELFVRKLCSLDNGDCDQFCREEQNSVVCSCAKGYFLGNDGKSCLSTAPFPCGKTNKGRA
Protocol: (§2) The inhibitory ability of the compounds to be tested on Xa factor or other enzymes, such as thrombin or trypsin, in human or rats were determined by IC50 values, wherein the IC50 value was associated with the inhibition constant Ki. The purified enzyme was used in the chromogenic determination. […] By plotting a curve regarding the relative velocity of the hydrolysis (compared to the control group which was free of inhibition) on the logarithm of the concentration of the compounds and linear regression calculation, the concentration of the inhibitor leading to a 50% reduction of the rate of the hydrolysis of the substrate was determined. The enzyme inhibition constant (Ki) was calculated according to Cheng-Prusoff equation: Ki=IC50/(1+[S]/Km), where [S] was the substrate concentration and Km was the meter-Mann's constant determined by the double reciprocal mapping method. The IC50 values of the compounds were obtained by GraphPad Prism software. The curve is fitted by using the “shaped dose effect (variable slope)”.
The inhibitory activity on coagulation factor Xa activity in human or rats was measured by using Tris-HCl buffer (50 mM, pH 8.3, 150 mM NaCl).

[3] = molecular target: human thrombin (Homo sapiens (Human), UniProt P00734); assay: Human thrombin assay; details: substrate S-2238; Ki from IC50 by Cheng-Prusoff
Protocol: as §1
The inhibitory activity on human thrombin was determined by using a buffer (10 mM HEPES buffer, pH 7.4, 2 mM CaCl2). Appropriate wells in the Greiner 384 microtiter plate were used to determine IC50. A buffer contained 50 μL human thrombin (Sigma; T8885), the final concentration of which was 0.05 NIH unit/mL. A buffer containing 2 μL 2% (V/V) DMSO (control group which was free of inhibition) or various concentration of the compound to be tested was diluted in the buffer containing 2% (V/V) DMSO. A buffer containing 48 μL substrate S-2238 (Chromogenix; Chemical formula: H-D-Phe-Pip-Arg-pNA.2HCl) was added, the final concentration was 30 μM. In this assay, the compound to be tested and the enzyme were pre-incubated for 10 minutes, the substrate was added to give a final volume of 100 μL to start the assay.

[4] = molecular target: human trypsin; assay: Human trypsin assay; details: substrate S-2222; Ki from IC50 by Cheng-Prusoff
Protocol: as §1
The inhibitory activity on human trypsin was determined by using buffer (50 mM Tris, pH 8.2, and 20 mM CaCl2). Appropriate wells in the Greiner 384 microtiter plate were used to determine IC50. A buffer containing 50 μL human trypsin (Sigma; T6424), the final concentration was 0.39 BAEE unit/mL, a buffer containing 2 μL 2% (V/V) DMSO (control group which was free of inhibition) or various concentration of the compound to be tested was diluted in the buffer containing 2% (V/V) DMSO. A buffer containing substrate S-2222 (Chromogenix), the final concentration was 30 μM. In this assay, the compound to be tested and the enzyme were pre-incubated for 10 minutes and then 48 μL substrate was added to give a final volume of 100 μL to start the assay.

[5] = molecular target: prothrombinase (Homo sapiens (Human), UniProt P00742); assay: Prothrombin assay (prothrombinase, thrombin production); details: human factor Xa, human blood platelets, substrate S-2238
prothrombinase, sequence (P00742 235-488): as the sequence (P00742 235-488) above
prothrombinase, sequence (P00742 41-179): as the sequence (P00742 41-179) above
prothrombinase, sequence (P12259 29-737 partner): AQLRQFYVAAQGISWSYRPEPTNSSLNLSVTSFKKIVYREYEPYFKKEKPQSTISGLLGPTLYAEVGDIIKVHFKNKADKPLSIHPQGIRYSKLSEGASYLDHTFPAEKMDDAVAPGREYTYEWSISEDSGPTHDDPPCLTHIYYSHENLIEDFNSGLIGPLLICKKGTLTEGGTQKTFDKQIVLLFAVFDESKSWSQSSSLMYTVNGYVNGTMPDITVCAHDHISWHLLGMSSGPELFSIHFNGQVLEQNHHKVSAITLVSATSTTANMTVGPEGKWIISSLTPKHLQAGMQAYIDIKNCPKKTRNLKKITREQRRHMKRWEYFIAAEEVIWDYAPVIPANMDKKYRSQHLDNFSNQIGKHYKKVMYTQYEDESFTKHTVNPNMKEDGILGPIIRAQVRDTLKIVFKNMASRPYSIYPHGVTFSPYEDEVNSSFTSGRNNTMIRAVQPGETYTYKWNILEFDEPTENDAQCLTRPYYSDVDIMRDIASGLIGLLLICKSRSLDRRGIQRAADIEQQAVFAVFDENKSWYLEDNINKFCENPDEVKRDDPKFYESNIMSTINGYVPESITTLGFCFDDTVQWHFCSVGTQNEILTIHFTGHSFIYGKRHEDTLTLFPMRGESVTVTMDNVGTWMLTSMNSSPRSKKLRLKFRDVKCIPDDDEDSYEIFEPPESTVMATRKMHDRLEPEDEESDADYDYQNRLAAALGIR
prothrombinase, sequence (P12259 1574-2224 partner): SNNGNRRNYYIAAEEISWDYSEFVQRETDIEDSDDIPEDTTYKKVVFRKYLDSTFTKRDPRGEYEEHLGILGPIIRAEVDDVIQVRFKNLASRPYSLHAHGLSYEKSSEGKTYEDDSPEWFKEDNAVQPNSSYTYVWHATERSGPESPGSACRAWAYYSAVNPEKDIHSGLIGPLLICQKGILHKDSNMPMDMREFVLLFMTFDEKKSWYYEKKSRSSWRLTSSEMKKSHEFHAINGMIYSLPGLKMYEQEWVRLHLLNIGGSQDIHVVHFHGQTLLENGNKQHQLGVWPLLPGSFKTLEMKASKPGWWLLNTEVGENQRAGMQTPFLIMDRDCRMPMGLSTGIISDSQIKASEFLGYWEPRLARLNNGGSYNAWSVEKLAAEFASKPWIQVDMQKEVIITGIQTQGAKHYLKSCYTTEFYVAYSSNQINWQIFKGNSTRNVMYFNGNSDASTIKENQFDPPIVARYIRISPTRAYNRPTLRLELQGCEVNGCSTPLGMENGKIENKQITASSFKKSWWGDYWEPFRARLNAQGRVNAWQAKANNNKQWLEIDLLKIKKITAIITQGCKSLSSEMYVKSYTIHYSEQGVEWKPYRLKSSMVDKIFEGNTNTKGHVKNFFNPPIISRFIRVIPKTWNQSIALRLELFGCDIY
Protocol: as §2
The activity of the compound to be tested against prothrombinase was determined by the production of thrombin. In summary, 12.5 μL human factor Xa was incubated in 10 mM HEPES buffer and pH 7.4, 2 mM CaCl2, the final concentration was 0.5 nM, and 12.5 μL human blood platelets (1×10^7 mL^−1) was added at 37° C. After 10 mins, 25 μL prothrombin was added to initiate the reaction, the final concentration was 0.5 μM, a buffer containing 2 μL 2% (V/V) DMSO (control group which was free of inhibition) or various concentration of the compound was diluted in the buffer containing 2% (V/V) DMSO.

Row | Ki [1] | Ki [2] | Ki [3] | Ki [4] | Ki [5] | SMILES
1 | 1.01 nM | 2.87 nM | > 1000 nM | > 20000 nM | 0.47 nM | O=C(NC[C@@H]1OC(=O)N2c3ccc(N4CCOCC4=O)cc3OC[C@@H]12)c1ccc(Cl)s1 [Compound 1, 5-chloro-N-(((3S,3aS)-1-one-7-(3-ketomorpholine)-1,3,3a,4-tetrahydrobenzo[b]oxazolo[3,4-d][1,4]oxazin-3-yl)methyl)thiophene-2-carboxamide]
2 |  | 4.45 nM | > 1000 nM | > 20000 nM |  | O=C(NC[C@@H]1OC(=O)N2c3ccc(N4CCCCC4=O)cc3OC[C@@H]12)c1ccc(Cl)s1 [Compound 2]
3 | 4.13 nM | 16.5 nM | > 1000 nM | > 20000 nM | 4.41 nM | O=C(NC[C@@H]1OC(=O)N2c3ccc(N4CCCNC4=O)cc3OC[C@@H]12)c1ccc(Cl)s1 [Compound 7]
4 | 1.92 nM | 3.17 nM | > 1000 nM | > 20000 nM | 0.9 nM | O=C(NC[C@@H]1OC(=O)N2c3ccc(-n4ccccc4=O)cc3OC[C@@H]12)c1ccc(Cl)s1 [Compound 8]
5 | 9.71 nM | 21.5 nM | > 1000 nM | > 20000 nM | 16.2 nM | COC[C@H]1CCCN1c1ccc2c(c1)OC[C@H]1[C@H](CNC(=O)c3ccc(Cl)s3)OC(=O)N21 [Compound 30]
6 | 106 nM |  |  |  |  | O=C(NC[C@@H]1OC(=O)N2c3ccc(-n4cncn4)cc3OC[C@@H]12)c1ccc(Cl)s1 [Compound 34]
